Experimental data: publication PMC9136610 (Acta Pharmaceutica Sinica. B, 2022)

What was measured:
[1] = ref Drugbank database (go.drugbank.com); cited from earlier work
plasma protein = settings: cited from earlier work; for Protein binding: ref Drugbank database (go.drugbank.com)
in vivo = settings: female, MMTV-PyMT (FVB/NJ background), mouse; for Kp: AUCtissue/AUCplasma
albumin = settings: cited from earlier work
[2] = for AUC in tumor tissues, fold higher than in the normal fatpad: i.v. injection

Row | SMILES | AUCtumor (oral 5 mg/kg, tumor) | AUC (in vivo; po, 5 mg/kg) [ng·h/mL] | bioavailability (in vivo; po, 5 mg/kg) [%] | Kp (in vivo; po, Kpbone, bone) | Kp (in vivo; po, Kpfatpad, fatpad) | Kp (in vivo; po, Kptumor, tumor) | LogP [1] | LogS [1] | pKa [1] | Protein binding (plasma protein) [%] | other results
1 | COc1cccc2c1C(=O)c1c(O)c3c(c(O)c1C2=O)C[C@@](O)(C(=O)CO)C[C@@H]3O[C@H]1C[C@H](N)[C@H](O)[C@H](C)O1 [doxorubicin] |  |  |  |  |  |  |  |  |  |  | binding affinity to albumin (albumin): 7500 mol/L
2 | CC/C(=C(/c1ccc(OCCN(C)C)cc1)c1cccc(O)c1)c1ccccc1 [Droloxifene] | 3238.8 | 127 | 45.3 | 7.7 | 9.5 | 25.6 | 5.43 | −5.1 | 8.49 |  | tissue selectivity compared to tamoxifen and toremifene, in words ([2]; i.v. 2.5 mg/kg): higher lung but lower pancreas selectivity; AUC in tumor tissues, fold higher than in the normal fatpad [2]: 3.1 fold
3 | Cc1cc(-c2ccc(/N=N/c3ccc4c(S(=O)(=O)O)cc(S(=O)(=O)O)c(N)c4c3O)c(C)c2)ccc1/N=N/c1ccc2c(S(=O)(=O)O)cc(S(=O)(=O)O)c(N)c2c1O [Evan blue] |  |  |  |  |  |  |  |  |  |  | plasma protein binding level (plasma protein): 68%
4 | CC/C(=C(\c1ccc(O)cc1)c1ccc(OCCN(C)C)cc1)c1ccccc1 [Afimoxifene, afimoxifene] | 2886.5 | 114 | 32.4 | 5 | 10.9 | 25.3 | 5.44 | −5.1 |  | 99 | tissue selectivity compared to tamoxifen and toremifene, in words ([2]; i.v. 2.5 mg/kg): higher lung but lower pancreas selectivity; exposure difference in the kidney, afimoxifene vs droloxifene ([2]; i.v. 2.5 mg/kg, AUC ratio): 4.8 fold; exposure difference in the liver, afimoxifene vs droloxifene ([2]; i.v. 2.5 mg/kg, AUC ratio): 6.8 fold; AUC in tumor tissues, fold higher than in the normal fatpad [2]: 2.2 fold
5 | COc1ccc2c(c1)CCC(c1ccccc1)=C2c1ccc(OCCN2CCCC2)cc1 [Nafoxidine, nafoxidine] | 6118.7 | 969 |  | 1.4 | 4.5 | 6.3 | 6.36 | −5.91 | 8.95 |  | oral bioavailability, fold higher than lasofoxifene (vs lasofoxifene): 3 fold; tissue selectivity compared to lasofoxifene, in words ([2]; after i.v and p.o. administration): higher selectivity in stomach, liver, fat, fatpad, spleen, kidney, but lower selectivity in heart, tumor and pancreas; exposure in the fat, fold higher than lasofoxifene ([2]; i.v. 2.5 mg/kg): 8 fold; exposure in the spleen, fold higher than lasofoxifene ([2]; i.v. 2.5 mg/kg): 6 fold; bioavailability (in vivo): 83.4%
6 | Oc1ccc2c(c1)CC[C@H](c1ccccc1)[C@@H]2c1ccc(OCCN2CCCC2)cc1 [Lasofoxifene, lasofoxifene] | 996 | 75.4 |  | 3.5 | 5.7 | 13.2 | 6.36 | −6 | 8.98 | 99 | bioavailability (in vivo): 26.9%

Continued, in another order:

Row | AUCtumor (oral 5 mg/kg, tumor) | AUC (in vivo; po, 5 mg/kg) [ng·h/mL] | bioavailability (in vivo; po, 5 mg/kg) [%] | Kp (in vivo; po, Kpbone, bone) | Kp (in vivo; po, Kpfatpad, fatpad) | Kp (in vivo; po, Kptumor, tumor) | SMILES | LogP [1] | LogS [1] | pKa [1] | Protein binding (plasma protein) [%] | other results
7 | 1393 | 64.9 | 18.5 | 5.1 | 20.9 | 21.5 | CN(C)CCOc1ccc(/C(=C(/CCCl)c2ccccc2)c2ccccc2)cc1 [Toremifene, toremifene] | 5.65 | −6 | 8.76 | 92 | tumor drug concentration, fold higher than raloxifene (oral 5 mg/kg, tumor, vs raloxifene): 1.5 fold; drug exposure in the lung, fold increase to tamoxifen (20 mg QD) (toremifene 60 mg QD (3-fold AUC) vs tamoxifen 20 mg QD): 2 fold
8 | 3621.3 | 102 | 39.4 |  |  |  | CC/C(=C(\c1ccccc1)c1ccc(OCCN(C)C)cc1)c1ccccc1 [Tamoxifen] |  |  |  | 98 | exposure difference in the fat, intestine and skin, tamoxifen vs toremifene ([2]; i.v. 2.5 mg/kg, AUC ratio): 2 fold
9 | 929.4 | 114 |  |  |  |  | O=C(c1ccc(OCCN2CCCCC2)cc1)c1c(-c2ccc(O)cc2)sc2cc(O)ccc12 [Raloxifene, raloxifene] |  |  |  |  | 
